Data as given in PubChem BioAssay (NCI).
Several values for one entry are separate records, joined by “and”; a condition that tells them apart may be missing. Equal values may be shown once.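 Cells were grown in 96-well plates and exposed to each compound for 48 hours at five concentrations; endpoints were interpolated linearly between bracketing concentrations, or set to the highest concentration if not reached. GI50 marks 50% less growth. Definition used: TGI = concentration required for complete inhibition of growth.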

What was measured:
Experiment in all cases: inhibition of tumour cell growth, NCI panel, 48 h
[1] = test system: ACHN renal
[2] = test system: HCT-116 colon
[3] = test system: HL-60(TB) leukemia
[4] = test system: HOP-62 NSCLC
[5] = test system: IGROV1 ovarian
[6] = test system: K-562 leukemia
[7] = test system: NCI-H522 lung
[8] = test system: OVCAR-5 ovarian
[9] = test system: RXF 393 renal

SMILES | GI50 [1] | TGI [1] | GI50 [2] | TGI [2] | GI50 [3] | TGI [3] | GI50 [4] | TGI [4] | GI50 [5] | TGI [5] | GI50 [6] | TGI [6] | GI50 [7] | TGI [7] | GI50 [8] | TGI [8] | GI50 [9] | TGI [9]
CC/C=C\C[C@@H](O)C/C=C1/C(=O)C=C[C@H]1C/C=C\CCCC(=O)OC | 1.97 µM | 4.02 µM | 0.498 µM | 2.53 µM | 1.96 µM | 5.48 µM | 3.31 µM | 9.8 µM | 3.31 µM | 12.6 µM | 0.987 µM | 10.1 µM | 1.65 µM | 3.97 µM | 3.35 µM | 12.1 µM | 1.85 µM | 3.55 µM
COc1cc(C(=O)CBr)c(OC)cc1C | – | > 100 µM | – | > 100 µM | – | > 100 µM | – | > 100 µM | – | > 100 µM | – | > 100 µM | – | > 100 µM | – | > 100 µM | – | > 100 µM
O=C(CC1(O)C(=O)Nc2c(Cl)ccc(Cl)c21)c1ccc(F)cc1 (stereo not drawn) | – | > 100 µM | – | – | – | 58.2 µM | – | > 100 µM | – | – | – | > 100 µM | – | > 100 µM | – | > 100 µM | – | 92.2 µM
O=C1C(Cl)=C(NCCN2CCOCC2)C(=O)c2ncccc21 | 1.45 µM | 7.29 µM and 2.91 µM | – | 3.51 µM and 3.58 µM | 1.43 µM | 4.44 µM | 1.77 µM | 4.46 µM and 3.36 µM | 1.71 µM | 3.73 µM and 3.4 µM | 1.67 µM | 3.67 µM and 4.61 µM | – | – | – | 3.59 µM and 3.56 µM | 1.66 µM | 3.38 µM and 3.06 µM
CCOC(=O)/C(=C\c1ccccc1)C(=O)O | – | > 100 µM | – | > 100 µM | – | > 100 µM | – | > 100 µM | – | > 100 µM | – | > 100 µM | – | > 100 µM | – | > 100 µM | – | –
C[N+]1=C(/C=C/c2ccc(O)c3ncccc23)C(C)(C)c2ccccc21 | 1.98 µM | 7.03 µM | 2.86 µM | 10.5 µM | 2.73 µM | 8.04 µM | 3.44 µM | 14.5 µM | – | – | 2.32 µM | > 100 µM | 2.83 µM | 11.6 µM | 2.42 µM | 12.6 µM | 4 µM | 16 µM
CC(C)(CO)N1CCN(C(=S)Nc2ccccc2)CC1 | – | > 100 µM | – | > 100 µM | – | – | – | > 100 µM | – | > 100 µM | – | 99.5 µM | – | > 100 µM | – | > 100 µM | – | > 100 µM
COc1ccc2c(c1)CCCN2c1c2ccccc2nc2ccccc12 | 0.611 µM | > 100 µM | 0.334 µM | 14.3 µM | 0.298 µM | 1.09 µM | – | – | 0.811 µM | 34.7 µM | 0.341 µM | > 100 µM | 0.384 µM | 16.2 µM | 0.544 µM | > 100 µM | 0.27 µM | 0.786 µM
O=C(CC1C(=O)NN(c2ccc(Br)cc2)C1=O)c1cc(O)ccc1O (stereo not drawn) | 14.8 µM | 49.4 µM | 26.2 µM | > 50 µM | 23.5 µM | > 50 µM | – | – | 40 µM | > 50 µM | 14.8 µM | > 50 µM | 18.5 µM | > 50 µM | 34.7 µM | > 50 µM | > 50 µM | > 50 µM
O=c1cc(-c2ccccc2)oc2cc(OC/C(=N/O)c3ccccc3)ccc12 | 9.41 µM | 20.2 µM | – | – | > 50 µM | > 50 µM | 22.4 µM | > 50 µM | – | – | 36.5 µM | > 50 µM | 9.61 µM | > 50 µM | > 50 µM | > 50 µM | 16 µM | > 50 µM
NC(=O)NS(=O)(=O)c1ccc(N2N=C(C(F)(F)F)CC2c2cc(C(F)(F)F)cc(C(F)(F)F)c2)cc1 (stereo not drawn) | 3.95 µM | 14.9 µM | 3.07 µM | 14.7 µM | 3.89 µM | > 100 µM | 6.53 µM | 22.4 µM | – | – | 4.98 µM | > 100 µM | – | – | 13.7 µM | 29.8 µM | 2.86 µM | 5.77 µM
CC(SC(=S)N1CCOCC1)c1cc2oc(=O)n(C)c2cc1Cl (stereo not drawn) | – | > 100 µM | – | > 100 µM | – | > 100 µM | – | > 100 µM | – | > 10 µM | – | > 100 µM | – | – | – | > 100 µM | – | > 100 µM
Cc1cc(N(CCC#N)CCC#N)ccc1/C=C1\N=C(c2cc([N+](=O)[O-])ccc2Cl)N(c2cccc(Cl)c2)C1=O | – | > 100 µM | – | > 100 µM | – | > 100 µM | – | > 100 µM | – | > 100 µM | – | > 100 µM | – | > 100 µM | – | > 100 µM | – | –
CC(=O)O[C@H]1C(=O)[C@@]2(C)C(C(OC(=O)c3ccccc3)[C@]3(O)CC(OC(=O)[C@H](OC(=O)CCC(=O)O)C(NC(=O)c4ccccc4)c4ccccc4)C(C)=C1C3(C)C)C1(OC(C)=O)COC1C[C@@H]2O (stereo partly drawn) | 0.19 µM and 0.821 µM | > 100 µM | – | > 100 µM | – | < 0.0136 µM | < 0.0175 µM and 0.0835 µM | > 100 µM | – | > 67.7 µM and 50 µM | – | – | – | < 0.01 µM | < 0.0146 µM and 0.0324 µM | > 36.1 µM | < 0.0249 µM and 0.0528 µM | 2.79 µM
O=[N+]([O-])c1ccc(C=NC2CCCCC2)cc1 | – | > 100 µM | – | > 100 µM | – | > 100 µM | – | > 100 µM | – | > 100 µM | – | > 100 µM | – | – | – | > 100 µM | – | > 100 µM
O=C(CCN(C(=O)O)S(=O)(=O)c1ccc(NC(=O)c2ccccc2)cc1)NC1CCCCC1 | – | > 100 µM | – | > 100 µM | – | 94.6 µM | – | > 100 µM | – | > 100 µM | – | > 100 µM | – | > 100 µM | – | > 100 µM | – | –
CC1(C)OC2=C(CC1Br)C(=O)C(=O)c1ccccc12 (stereo not drawn) | 2.03 µM | 3.84 µM | 1.7 µM | 3.41 µM | 1.8 µM | 4.57 µM | 1.99 µM | 3.62 µM | 2.18 µM | 4.12 µM | 2.23 µM | 4.89 µM | 1.62 µM | 3.03 µM | – | – | 1.9 µM | 3.33 µM
CC1OC(OC2C(OC(=O)[C@]34CCC(C)(C)CC3C3=CCC5[C@@]6(C)C[C@H](O)[C@H](OC7OC(CO)C(O)C(O)C7N)[C@@](C)(C(=O)O)C6CC[C@@]5(C)C3(C)CC4)OCC(O)C2O)C(O)C(O)C1OC1OCC(O)C(O)C1O (stereo partly drawn) | – | > 100 µM | – | – | – | > 100 µM | – | > 100 µM | – | > 100 µM | – | > 100 µM | – | > 100 µM | – | > 100 µM | – | > 100 µM
